Test results: PubChem BioAssay AID1996
≈ marks a conversion by molar mass, not a printed value.

Conditions: buffer; pH 7.4; 200.0 µM
With `CN1[C@@H](CC(=O)c2ccccc2)CCC[C@H]1C[C@H](O)c1ccccc1.Cl` the solubility kinetic was over 56.1 µg/mL.
Molecule `Cc1cc(C(=O)N2CCN(c3ccc([N+](=O)[O-])cc3)CC2)n[nH]1` has a solubility kinetic of over 47.3 µg/mL.
`CN(C)c1ccc(Nc2ccc([N+](=O)[O-])cn2)cc1` gave a solubility kinetic of 1 µg/mL (≈ 3.87 µM).
In the case of `Cc1ccc(OCC(=O)NCCNC(=O)c2ccco2)cc1C`, the solubility kinetic is reported as over 47.5 µg/mL.
Molecule `Cc1cc(=O)oc2cc(OCC(=O)N3CC[C@@]4(O)CCCC[C@H]4C3)ccc12` has a solubility kinetic of over 55.7 µg/mL.
For `CCCC(=O)OCC(=O)Nc1ccc2c(c1)OCO2`, the solubility kinetic was 37.2 µg/mL (≈ 140 µM).
With `O=C(CCC1CCCN(C(=O)c2ccco2)C1)NCc1ccccc1F` (centres undefined) the solubility kinetic was over 53.8 µg/mL.
`Nc1cc[n+](CC(=O)c2ccccc2)cc1.[Br-]` showed a solubility kinetic of over 44 µg/mL.
In the case of `O=C(NCCc1ccccc1)C(=O)c1c[nH]c2ccccc12`, the solubility kinetic is reported as 0.4 µg/mL (≈ 1.37 µM).
For `Cc1ccc(-c2noc(CCCC(=O)NCC3CCCO3)n2)cc1` (centres undefined), the solubility kinetic was 42.2 µg/mL (≈ 128 µM).
Molecule `CCOC(=O)c1ccc(NC(=O)c2cc(=O)[nH]c3ccccc23)cc1` has a solubility kinetic of under 0.4 µg/mL.
`Cc1ccc2oc(=O)n(Cc3ccccc3)c2c1` gave a solubility kinetic of 2.9 µg/mL (≈ 12.1 µM).
Molecule `O=C(c1ccc2nc[nH]c2c1)N1CCc2ccccc2C1` has a solubility kinetic of over 41.6 µg/mL.
In the case of `O=C(NCC1CCCCC1)c1cccc(-c2ccc(O)cc2)c1`, the solubility kinetic is reported as under 0.7 µg/mL.
With `CCOC(=O)c1cc(-c2cccc([N+](=O)[O-])c2)on1` the solubility kinetic was 2.1 µg/mL (≈ 8.01 µM).
For `CCn1c(=O)c(C(=O)NCc2ccc(F)cc2)c(O)c2ccccc21`, the solubility kinetic was under 0.4 µg/mL.
`CCCNC(=O)CSc1nc(Cc2ccccc2)nc2ccccc12` gave a solubility kinetic of 8.2 µg/mL (≈ 23.3 µM).
With `CCCc1nc2ccccc2n1C(=S)SC` the solubility kinetic was 12.3 µg/mL (≈ 49.1 µM).
`CCOC(=O)CCCNC(=O)CSc1nc2ccc(OCC)cc2[nH]1` showed a solubility kinetic of 51.4 µg/mL (≈ 141 µM).
`CSc1ccc(C(=O)NCC(c2ccco2)N(C)C)cc1[N+](=O)[O-]` (centres undefined) gave a solubility kinetic of over 52.4 µg/mL.
In the case of `O=C(NCCCn1ccnc1)c1ccc(Br)s1`, the solubility kinetic is reported as 46.9 µg/mL (≈ 149 µM).
For `Cc1ccc2[nH]c(=O)c(-c3noc(CC(C)C)n3)cc2c1`, the solubility kinetic was 5.1 µg/mL (≈ 18 µM).
Work on `O=C(c1cc2c(s1)CCCC2)N1CCN(c2ccccc2)CC1` yielded a solubility kinetic of 1.5 µg/mL (≈ 4.59 µM).
`Cc1c(C(=O)n2cnc3ccccc32)cccc1[N+](=O)[O-]` gave a solubility kinetic of 39.8 µg/mL (≈ 142 µM).
For `COc1ccccc1C(=O)NCC1(c2ccccc2)CCCC1`, the solubility kinetic was 8.1 µg/mL (≈ 26.2 µM).
Molecule `CC(C)CC1(C)NC(=O)N(CC(=O)Nc2ccccc2Br)C1=O` (centres undefined) has a solubility kinetic of over 57.3 µg/mL.
For `CCOC(=O)N1CCN(Cc2ccc3ccccc3c2)CC1`, the solubility kinetic was 26.9 µg/mL (≈ 90.2 µM).
Molecule `C=CCn1cccc(C(=O)Nc2ccc(C)cc2)c1=O` has a solubility kinetic of 39.7 µg/mL (≈ 148 µM).
Work on `O=Cc1cccn1-c1ncc(Br)cn1` yielded a solubility kinetic of 30.6 µg/mL (≈ 121 µM).
`Cc1ccc(NC(=S)NCC(C)CSc2ccc(Cl)cc2)cc1` (centres undefined) gave a solubility kinetic of 1.1 µg/mL (≈ 3.01 µM).
In the case of `O=C(O)C1CCN(C(=O)c2cc(F)cc3c2OCOC3)CC1`, the solubility kinetic is reported as over 46.4 µg/mL.
Work on `Cc1cccc(NC(=O)C(C)Sc2nc3nc(C)cc(C)n3n2)c1` (centres undefined) yielded a solubility kinetic of over 51.2 µg/mL.
Work on `COc1cccc(OC)c1OCC(=O)Nc1ccc(S(=O)(=O)N2CCCC2)cc1` yielded a solubility kinetic of 2.6 µg/mL (≈ 6.18 µM).
Work on `CSCC(C)N1CCC(CCC(=O)NC2CC2)CC1` (centres undefined) yielded a solubility kinetic of over 42.7 µg/mL.
`CSc1cccc(NC(=S)N2CCC(N(C)C3CCCC3)CC2)c1` showed a solubility kinetic of over 54.5 µg/mL.
Work on `CC(=O)/C=C1/C(=O)Nc2ccccc21` yielded a solubility kinetic of over 28.1 µg/mL.
In the case of `O=C1OCC2=C1C(c1ccccc1)CC(=O)N2c1cccc(F)c1` (centres undefined), the solubility kinetic is reported as 44.3 µg/mL (≈ 137 µM).
`CN1CCC(CNC(=O)Nc2ccccc2)(c2ccccc2)CC1` showed a solubility kinetic of over 48.5 µg/mL.
`CN1C(=O)C(c2ccc([N+](=O)[O-])cc2[N+](=O)[O-])C(=O)N(C)C1=O` showed a solubility kinetic of over 48.3 µg/mL.
Molecule `Cc1ccc2ncnc(Nc3ccccc3)c2c1` has a solubility kinetic of 11.6 µg/mL (≈ 49.3 µM).
Work on `O=C1OCC2=C1C(c1ccc(F)cc1)CC(=O)N2c1ccccc1` (centres undefined) yielded a solubility kinetic of over 48.5 µg/mL.
For `COCCSc1ccccc1C(=O)Nc1cc([N+](=O)[O-])ccc1OC`, the solubility kinetic was 4.1 µg/mL (≈ 11.3 µM).
In the case of `CN(C)CCCNc1c2ccccc2nc2ccccc12`, the solubility kinetic is reported as over 41.9 µg/mL.
Molecule `CC1CCCN(c2c([N+](=O)[O-])cc(C(=O)O)cc2[N+](=O)[O-])C1` (centres undefined) has a solubility kinetic of 46.2 µg/mL (≈ 149 µM).
`Nc1nc(NCc2ccco2)nc(Nc2ccccc2)c1[N+](=O)[O-]` gave a solubility kinetic of 0.4 µg/mL (≈ 1.23 µM).
`Nc1cccc(C(=O)NCCNC(=O)c2cccc(N)c2)c1` gave a solubility kinetic of over 44.8 µg/mL.
For `O=c1[nH]cnc2c1ncn2[C@@H]1O[C@H](CO)[C@@H](O)[C@H]1O`, the solubility kinetic was over 40.2 µg/mL.
With `O=S(=O)(c1cccc2nsnc12)N1CCCCC1` the solubility kinetic was over 42.5 µg/mL.
Molecule `O=C(O)CCN1C(=O)c2ccc(NC(=O)c3ccco3)cc2C1=O` has a solubility kinetic of over 49.2 µg/mL.
Molecule `COc1ccc(NC2CC(=O)N(c3cccc([N+](=O)[O-])c3)C2=O)cc1` (centres undefined) has a solubility kinetic of over 51.2 µg/mL.
With `O=C(Nc1ccccc1)/C(=C\c1ccco1)NC(=O)c1ccco1` the solubility kinetic was over 48.3 µg/mL.
Molecule `Cc1ccc(C)c(OC(=O)c2cccnc2Cl)c1C` has a solubility kinetic of 14.8 µg/mL (≈ 53.7 µM).
For `O=C(Nc1ccccc1)c1ccc2c(c1)OCCCO2`, the solubility kinetic was over 40.4 µg/mL.
Molecule `COc1cc2cc(-c3ccc(OC)c(OC)c3C)nc(N)c2cc1OC` has a solubility kinetic of 46.8 µg/mL (≈ 132 µM).
`Clc1cccc(CN2CCCCCC2)c1Cl` showed a solubility kinetic of 4.8 µg/mL (≈ 18.6 µM).
Molecule `C=CCNC(=S)NC(=O)c1csc([N+](=O)[O-])c1` has a solubility kinetic of 38.5 µg/mL (≈ 142 µM).
`O=C(COC(=O)c1ccccc1O)NC12CC3CC(CC(C3)C1)C2` gave a solubility kinetic of 14.5 µg/mL (≈ 44 µM).
With `O=C(O)c1cc(-c2ccc(Cl)c(Cl)c2)n(-c2ccccc2)n1` the solubility kinetic was over 50 µg/mL.
`CCOC(=O)NN1C(=O)c2ccccc2NC1c1cccnc1` (centres undefined) showed a solubility kinetic of over 46.8 µg/mL.
